# Values quoted from earlier work, collected in patent publication EP0584511B1, “PROCESS FOR THE PREPARATION OF A COMPOSITE TEXTILE MATERIAL” (ALCANTARA S.p.A., priority 1992, dated 1994).
# Settings: substituted aromatic amines proposed as replacement extenders; background statement
row,Compound,classification at Ames's test
1,Cc1cc(Cc2cc(C)c(N)c(C(C)C)c2)cc(C(C)C)c1N [4-4' methylene-bis-(2 isopropyl-6 methylaniline)],non cancerogenic
2,"CCc1cc(Cc2cc(CC)c(N)c(CC)c2Cl)c(Cl)c(CC)c1N [4-4' methylene-bis-(3-chloro-2,6-diethylaniline)]",non cancerogenic
3,diethyltoluene diamine,non cancerogenic
